What all share (format): in vivo
Test [1] relates to panicum, fall (fall panicum, Panicum dichotomiflorum). The test can be described thus: Test E pre-/postemergence: panicum, fall. The following applies: Preemergence, scale 0 to 100. The gist of the method: (§1)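 Greenhouse pot test, both timings. Pre: silt loam, sprayed after planting. Post: 2–18 cm plants (1–4 leaf), peat moss/vermiculite mix. Same surfactant-containing formulation for both. Read: visual % control, 0–100, day 14–21.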

Test [2] deals with sandbur (southern sandbur, Cenchrus echinatus). The test can be described thus: Test E pre-/postemergence: sandbur. To be noted: Preemergence, scale 0 to 100. The gist of the method: as §1
Test [3] concerns crabgrass, Brazil (Brazilian crabgrass, Digitaria horizontalis). The test can be described thus: Test E pre-/postemergence: crabgrass, Brazil. To be noted: Preemergence, scale 0 to 100. From the text:
(§2) Seeds of plant species selected from corn (Zea mays), soybean (Glycine max), velvetleaf (Abutilon theophrasti), lambsquarters (Chenopodium album), poinsettia, wild (wild poinsettia, Euphorbia heterophylla), pigweed, palmer (palmer pigweed, Amaranthus palmeri), waterhemp (common waterhemp, Amaranthus rudis), smartweed (ladysthumb smartweed, Polygonum persicaria), surinam grass (Brachiaria decumbens), crabgrass, large (large crabgrass, Digitaria sanguinalis), crabgrass, Brazil (Brazilian crabgrass, Digitaria horizontalis), panicum, fall (fall panicum, Panicum dichotomiflorum), foxtail, giant (giant foxtail, Setaria faberii), foxtail, green (green foxtail, Setaria viridis), goosegrass (Eleusine indica), johnsongrass (Sorghum halepense), ragweed (common ragweed, Ambrosia elation), barnyardgrass (Echinochloa crus-galli), sandbur (southern sandbur, Cenchrus echinatus), arrowleaf sida (Sida rhombifolia), ryegrass, Italian (Italian ryegrass, Lolium multiflorum), dayflower, (VA) (Virginia dayflower, Commelina virginica), field bindweed (Convolvulus arvensis), cocklebur (common cocklebur, Xanthium strumarium), morningglory (Ipomoea coccinea), nightshade (eastern black nightshade, Solanum ptycanthum), kochia (Kochia scoparia), nutsedge, yellow (yellow nutsedge, Cyperus esculentus) and beggarticks (hairy beggarticks, Bidens pilosa) were planted into a silt loam soil and treated preemergence with test chemicals formulated in a non-phytotoxic solvent mixture which included a surfactant. At the same time, plants selected from these crop and weed species were planted in pots containing a growing medium comprising spaghnum peat moss, vermiculite, wetting agent and starter nutrients and treated with postemergence applications of some of the test chemicals formulated in the same manner. Plants ranged in height from 2 to 18 cm for postemergence treatments (1- to 4-leaf stage).
(§3) Treated plants and controls were maintained in a greenhouse for 14 to 21 days, after which time all species were compared to controls and visually evaluated. Plant response ratings, summarized in Table E, are based on a scale of 0 to 100 where 0 is no effect and 100 is complete control. A dash (-) response means no test result.

Test [4] relates to poinsettia, wild (wild poinsettia, Euphorbia heterophylla). The test can be described thus: Test E pre-/postemergence: poinsettia, wild. To be noted: Preemergence, scale 0 to 100.
Description: as §2, §3

Test [5] deals with dayflower, VA (Virginia (VA) dayflower, Commelina virginica). The test can be described thus: Test F pre-/postemergence: dayflower, VA.
Description: (§4) Seeds of plant species selected from corn (Zea mays), soybean (Glycine max), velvetleaf (Abutilon theophrasti), lambsquarters (Chenopodium album), poinsettia, wild (wild poinsettia, Euphorbia heterophylla), pigweed, palmer (palmer pigweed, Amaranthus palmeri), waterhemp (common waterhemp, Amaranthus rudis), surinam grass (Brachiaria decumbens), crabgrass, Brazil (Brazilian crabgrass, Digitaria horizontalis), panicum, fall (fall panicum Panicum dichotomiflorum), crabgrass, large (large crabgrass, Digitaria sanguinalis), foxtail, giant (giant foxtail, Setaria faberii), foxtail, green (green foxtail Setaria viridis), goosegrass (Eleusine indica), ragweed (common ragweed, Ambrosia elatior), barnyardgrass (Echinochloa crus-galli), sandbur (southern sandbur, Cenchrus echinatus), arrowleaf sida (Sida rhombifolia), ryegrass, Italian (Italian ryegrass, Lolium multiflorum), dayflower, VA (Virginia (VA) dayflower, Commelina virginica), field bindweed (Convolvulus arvensis), cocklebur (common cocklebur, Xanthium strumarium), morningglory (Ipomoea coccinea), nightshade (eastern black nightshade, Solanum ptycanthum), kochia (Kochia scoparia), nutsedge, yellow (yellow nutsedge, Cyperus esculentus), johnsongrass (Sorghum halepense), smartweed (ladysthumb smartweed, Polygonum persicaria), and beggarticks (hairy beggarticks, Bidens pilosa), were planted into a silt loam soil and treated preemergence with test chemicals formulated in a non-phytotoxic solvent mixture which included a surfactant. At the same time, plants selected from these crop and weed species and also pigweed (Amaranthus retroflexus), waterhemp_RES1 (ALS/Triazine resistant common waterhemp, Amaranthus rudis) and waterhemp_RES2 (ALS/HPPD resistant common waterhemp, Amaranthus rudis) were planted in pots containing a planting medium comprising spaghnum peat moss, vermiculite, wetting agent and starter nutrients treated with postemergence applications of some of the test chemicals formulated in the same manner. Plants ranged in height from 2 to 18 cm for postemergence treatments (1- to 4-leaf stage).
as §3

The subject of test [6] is velvetleaf (Abutilon theophrasti). The test can be described thus: Test F pre-/postemergence: velvetleaf. To be noted: Preemergence.
Description: as §4, §3

Test [7] concerns morningglory (Ipomoea coccinea). The test can be described thus: Test F pre-/postemergence: morningglory. To be noted: Preemergence.
Description: as §4, §3

A further test deals with kochia (Kochia scoparia). The test can be described thus: Test F pre-/postemergence: kochia. The following applies: Preemergence.
Description: as §4, §3

In test [8] the test system is nightshade (eastern black nightshade, Solanum ptycanthum). The test can be described thus: Test F pre-/postemergence: nightshade. To be noted: Preemergence.
Description: as §4, §3

For test [9], the system named is crabgrass, Brazil (Brazilian crabgrass, Digitaria horizontalis). The test can be described thus: Test F pre-/postemergence: crabgrass, Brazil.
Description: as §4, §3

Test [10] has as its system pigweed, palmer (palmer pigweed, Amaranthus palmeri). The test can be described thus: Test F pre-/postemergence: pigweed, palmer.
Description: as §4, §3

The mark [11] stands for this setting: Preemergence, 16 g ai/ha, scale 0 to 100 (0 no effect, 100 complete control).
The mark [12] stands for this setting: Preemergence, 31 g ai/ha, scale 0 to 100 (0 no effect, 100 complete control).
Where [13] appears, read: Preemergence, 62 g ai/ha, scale 0 to 100.
[14] abbreviates: Preemergence, 125 g ai/ha, scale 0 to 100.
Setting [15] is: 16 g ai/ha, scale 0 to 100 (0 no effect, 100 complete control).
Where [16] appears, read: 31 g ai/ha, scale 0 to 100 (0 no effect, 100 complete control).
Setting [17] is: Postemergence, 8 g ai/ha, scale 0 to 100.
[18] abbreviates: Postemergence, 16 g ai/ha, scale 0 to 100.
Where [19] appears, read: Postemergence, 31 g ai/ha, scale 0 to 100.
Where [20] appears, read: Postemergence, 62 g ai/ha, scale 0 to 100.
Where [21] appears, read: Postemergence, 125 g ai/ha, scale 0 to 100.
The mark [22] stands for this setting: Preemergence, 250 g ai/ha, scale 0 to 100.

As to `Cc1nn(-c2ccc(F)cc2)nc1Oc1ccnc(C(F)(F)F)c1` [Compound 129, 4-[[2-(4-fluorophenyl)-5-methyl-2H-1,2,3-triazol-4-yl]oxy]-2-(trifluoromethyl)pyridine], the “Plant response rating: Panicum, Fall” value in [1] (8 g ai/ha) was 0; in [1] (16 g ai/ha), 35; in [1] (31 g ai/ha), 98; in [1] (62 g ai/ha), 100; in test [1] (125 g ai/ha), 100. In addition, the “Plant response rating: Sandbur” value in test [2] (8 g ai/ha) amounted to 0; in test [2] (16 g ai/ha) it was 0; in [2] (31 g ai/ha), 20; in [2] (62 g ai/ha), 20; in test [2] (125 g ai/ha), 50. Moreover, the “Plant response rating: Crabgrass, Brazil” value in [3] (8 g ai/ha) worked out at 10; in test [3] (16 g ai/ha), 15; in test [3] (31 g ai/ha), 60; in [3] (62 g ai/ha), 95; in test [3] (125 g ai/ha), 100. Besides, the “Plant response rating: Poinsettia, Wild” value in test [4] (8 g ai/ha) is reported as 0; in test [4] (16 g ai/ha), 0; in test [4] (31 g ai/ha), 0; in test [4] (62 g ai/ha), 0; in test [4] (125 g ai/ha), 25.
Regarding `Fc1ccc(-n2nc(Cc3ccnc(C(F)(F)F)c3)c(OCC(F)(F)F)n2)cc1` [Compound 142], the “Plant response rating, Dayflower, VA” value worked out at 0 in test [5] (setting [11]), 5 in test [5] (setting [12]), 50 in [5] (setting [13]) and 70 in [5] (setting [14]). The “Plant response rating, Velvetleaf” value was determined as 0 in test [6] (setting [15]); 0 in test [6] (setting [16]); 75 in test [6] (125 g ai/ha, scale 0 to 100). The “Plant response rating, Morningglory” value in test [7] (setting [15]) worked out at 0; in [7] (setting [16]), 0; in test [7] (125 g ai/ha, scale 0 to 100) it was 35. Moreover, the “Plant response rating, Kochia” value is given as 20 with kochia (Kochia scoparia) (setting [15]); 80 in the test with kochia (Kochia scoparia) (setting [16]); 85 in the test with kochia (Kochia scoparia) (62 g ai/ha, scale 0 to 100); 95 with kochia (Kochia scoparia) (125 g ai/ha, scale 0 to 100). The “Plant response rating, Nightshade” value in test [8] (setting [15]) was found to be 65; in test [8] (setting [16]), 80; in test [8] (125 g ai/ha, scale 0 to 100), 98.
Regarding `Cc1nn(-c2ccc(F)c(F)c2)nc1Oc1ccnc(C(F)(F)F)c1` [Compound 145], the “Plant response rating, Dayflower, VA” value in [5] (setting [17]) was 15; in [5] (setting [18]), 20; in test [5] (setting [19]) it was 50; in [5] (setting [20]) it was 60; in test [5] (setting [21]), 70. Moreover, the “Plant response rating, Crabgrass, Brazil” value in [9] (setting [17]) was found to be 15; in test [9] (setting [18]) it was 25; in test [9] (setting [19]), 40; in [9] (setting [20]), 40; in test [9] (setting [21]), 50. Moreover, the “Plant response rating, Pigweed, Palmer” value is given as 40 in test [10] (setting [17]), 70 in [10] (setting [18]), 85 in test [10] (setting [20]) and 90 in [10] (setting [21]).
On to `CCCc1nn(-c2ccc(F)cc2)nc1Cc1ccnc(C(F)(F)F)c1` [Compound 153], for which the “Plant response rating, Dayflower, VA” value in test [5] (setting [11]) worked out at 5; in test [5] (setting [12]), 10; in test [5] (setting [13]), 40; in [5] (setting [14]), 80; in [5] (setting [22]), 95. The “Plant response rating, Velvetleaf” value in test [6] (setting [15]) is 20; in test [6] (setting [16]), 50; in test [6] (125 g ai/ha, scale 0 to 100), 98; in [6] (250 g ai/ha, scale 0 to 100), 100. For the same compound, the “Plant response rating, Morningglory” value in test [7] (setting [15]) turned out to be 0; in [7] (setting [16]) it was 30; in test [7] (125 g ai/ha, scale 0 to 100), 65; in test [7] (250 g ai/ha, scale 0 to 100), 65. Moreover, the “Plant response rating, Kochia” value with kochia (Kochia scoparia) (setting [15]) worked out at 25; with kochia (Kochia scoparia) (setting [16]), 75; in the test on kochia (Kochia scoparia) (62 g ai/ha, scale 0 to 100), 95; in the test on kochia (Kochia scoparia) (125 g ai/ha, scale 0 to 100) it was 100; in the test with kochia (Kochia scoparia) (250 g ai/ha, scale 0 to 100) it was 100. Further, the “Plant response rating, Crabgrass, Brazil” value in [9] (setting [11]) came to 98; in test [9] (setting [12]) it was 100; in test [9] (setting [13]), 100; in test [9] (setting [14]) it was 100; in [9] (setting [22]), 100. In addition, the “Plant response rating, Nightshade” value in [8] (setting [15]) is 50; in [8] (setting [16]) it was 50; in [8] (125 g ai/ha, scale 0 to 100), 100; in test [8] (250 g ai/ha, scale 0 to 100), 100. In addition, the “Plant response rating, Pigweed, Palmer” value in [10] (setting [11]) worked out at 98; in test [10] (setting [12]), 100; in test [10] (setting [14]), 100; in test [10] (setting [22]), 100.
